Results published in patent US12582652B2, “3-(ethoxydifluoromethyl)-6-(5-fluoro-6-(2,2,2-trifluoroethoxy)pyridin-3-yl)-[1,2,4]triazolo[4,3-a]pyrazine as an ion channel modulator” (Praxis Precision Medicines, Inc., priority 2022, dated 2026).

How the values were obtained:
human NaV1.6 [1] = target: T1, human NaV1.6 (Homo sapiens, UniProt Q9UQD0); assay: ATX-II activated late (persistent) INa block, PatchXpress patch clamp; format: cell-based; details: for IC50: hNaV1.6, ATX-II-evoked, holding −120 mV
T1 construct: stably expressing either human NaV1.6 (NP_055006); expressed in transfected cells
Description: (§1) HEK-293 cell lines stably expressing either human NaV1.6 (NP_055006), mouse NaV1.6 (NP_035453.2), or rat NaV1.6 (NP_062139) were used. All cells were seeded at 2×10^6 cells per Nunc T75 flask for 2 days in culture. At time of harvest for assays, the cell counts were approximately 6×10^6 cells. Cells were washed (1×) in DPBS (Hyclone, Cat #SH30028.03) for approximately 30 seconds. 1 mL of 1×0.05% Trypsin-EDTA (GIBCO Cat #25300-054) was added and swirled around to cover the bottom of the flask and was allowed to sit on the cells for approximately 4 minutes (±90% of the cells were lifted by light tapping of the flask). 10 mL of warmed media (DMEM high glucose media Hyclone, SH30022.02 supplemented with 10% Fetal Bovine Serum, 2 mM Sodium Pyruvate, 10 mM HEPES and 400 μg/mL G418) was added to inactivate the trypsin. Cells were triturated until a single cell suspension was achieved. A cell count was performed and cells were aliquoted into a 250 ml centrifuge tube at a concentration of 2×10^5/mL in +30 ml of prewarmed media. The 250 mL centrifuge tube was placed on a rocker in an incubator set at 28° C. and gently rocked for approximately 1 hour to allow cells to recover. Cell aliquots of 5 mL (1×10^6 cells) were placed in a 15 mL centrifuge tube and spun at 100×g for 2 minutes. Supernatant was removed leaving a cell pellet. 100 μL of external recording solution was added to the pellet and triturated 20 times to achieve a single cell suspension and then transferred to a 1.5 mL tube for placement in the PatchXpress® (Molecular Devices).
(§2) Compound 1 was provided as powder and prepared as 10 mM DMSO stocks in 1 dram glass vials prior to assay. Immediately prior to assay, Compound 1 was diluted with DMSO to 300×, the designated final assay concentration. Assay dilutions (1× concentration) were prepared by pipetting 3 μL of diluted Compound 1 into 897 μL of extracellular solution in a 1 mL glass shell vial. Vials were capped and vortexed until initiation of the PatchXpress® (Molecular Devices) recording protocol.
(§3) The same intracellular recording solution was used for the persistent and peak INa assays, which contained: 135 mM CsF, 10 mM CsCl, 5 mM NaCl, 10 mM HEPES, 5 mM EGTA at a pH of 7.4 (adjusted with CsOH) and a measured osmolarity of 298 mOsm (adjusted with mannitol). For the persistent INa assay, the external recording solution contained: 135 mM NaCl, 5.4 mM KCl, 5 mM glucose, 2 mM CaCl2), 1 mM MgCl2, 10 mM HEPES, and 200 nM ATX-II (sea anemone toxin, Alomone Labs; Jerusalem, Israel) at a pH of 7.4 (adjusted with NaOH) and a measured osmolarity of 300 mOsm (adjusted with mannitol). For the peak INa assays, the external recording solution contained: 100 mM NaCl, 35 mM NMDG, 5.4 mM KCl, 5 mM glucose, 2 mM CaCl2), 1 mM MgCl2, and 10 mM HEPES at a pH of 7.4 (adjusted with NaOH) and a measured osmolarity of 300 mOsm (adjusted with mannitol).
(§4) All studies were performed using the PatchXpress® (Molecular Devices) automated patch clamp platform (Molecular Devices) using the whole cell configuration. Recordings were performed at room temperature. Data were collected using Patch Commander software (Molecular Devices) and processed using DataXpress 2.0 (Molecular Devices). Cell acceptance criteria were continuously monitored by custom scripts during the recording. Acceptance criteria for all assays were: baseline peak INa>800 pA, Rseal>200 MΩ, and, where appropriate, persistent INa>100 pA. Compensation was 50% and leak subtraction was not used. Currents were filtered at 5 kHz and digitized at 32.5 kHz. Raccess and Rseal were monitored throughout the recording and cells with Raccess>10 MΩ or Rseal<200 MΩ were terminated automatically by script.
Late (persistent) current Block: The inhibition of ATX-II activated late current was measured using a 200 ms voltage step to 0 mV. Protocols used low stimulation rates (about 0.1 Hz) and negative potentials (−120 mV) to keep channels in closed (resting) states.

human NaV1.6 [2] = target: T1, human NaV1.6; assay: Peak INa tonic block (TB), PatchXpress patch clamp; format: cell-based; details: for IC50: hNaV1.6, 0.1 Hz, resting state
Description: as §1, §2, §3, §4
Tonic Block (TB): Tonic Block (TB) protocols used low stimulation rates (about 0.1 Hz) and negative potentials (−120 mV) to keep channels in closed (resting) states. Pharmacology was measured during peak INa in response to step to 0 mV. No leak subtraction was used.

human NaV1.6 [3] = target: T1, human NaV1.6; assay: Peak INa voltage-dependent block (VDB), PatchXpress patch clamp; format: cell-based; details: for Ratio to Pers. INa (Peak INa VDB / persistent INa): hNaV1.6; for IC50: hNaV1.6, half-inactivated (V1/2)
Description: as §1, §2, §3, §4
Voltage Dependent Block (VDB): VDB protocols used a depolarized voltage to keep channels in half-inactivated (resting) states. This allowed equilibrium binding and accurate determination of isoform selectivity (in the absence of biological features).

healthy participants = assay: 2-part Phase 1 trial (28 days; OXC combination): safety and tolerability; format: in vivo, human; details: Part B, per arm
Description: (§5) This was a 2-part randomized, placebo-controlled Phase 1 trial in healthy participants aged 18-55 years. […] PD effects were examined on quantitative EEG (qEEG; resting and vigilant conditions) and stimulated EEG using auditory steady state response (ASSR). A total of 48 participants were enrolled; Part A, n=30; Part B, n=18.

[4] = in vivo
Description: as §5

human NaV1.6 [5] = target: T1, human NaV1.6; assay: Peak INa use-dependent block (UDB-10 Hz), PatchXpress patch clamp; format: cell-based
male CD-1 mice [6] = assay: Maximal electroshock induced seizure (MES) test; format: in vivo, mouse; details: for protection (increase in latency) against MES-induced tonic hindlimb seizures, dose-response: Compound 1 0.3-10 mg/kg po; for ED50: mouse MES, read-out: Efficacy (MES) ED50, increasing latency to tonic extension seizures
Description: Food and water were available ad libitum.
VPA was prepared in saline (Vehicle 1). All solutions were protected from light. All compounds and vehicles were dosed at 10 ml/kg.
The MES test was carried out over two days with 6 of 12 mice from each treatment group being tested on each day. Mice were brought to the test room at least one hour before the start of the experiment.
A Grass S88x (Grass Technologies of Astro-Med, Inc., West Warwick, RI) Stimulus Isolation Unit (A385, WPI Inc., USA) was set to deliver a 50 mA square-wave stimulus, with a 0.8 second duration, a pulse width of 10 msec, and a frequency of 50 Hz. A pair of custom stainless steel electrodes were soaked in 0.2% Agar, and then the subject received bilateral transauricular stimulation through ear-clip electrodes. During the stimulation, mice were manually restrained. They were then released into the observation cage for convulsion observation for 60 seconds immediately after stimulation. Each mouse was observed continuously by individuals blinded to treatment conditions and results were recorded.
Anti-seizure assessment endpoints were: (1) latency of hindlimb tonic flexion; (2) latency of hindlimb tonic extension; (3) total #hindlimb tonic flexions; (4) total #hindlimb tonic extensions; (5) latency to death; and (6) mortality rate
From these fitted curves, ED50 and EC50 values were calculated.

male CD-1 mice [7] = assay: Spontaneous locomotor activity (sLMA) test; details: for sLMA distance moved, dose-response: Compound 1 10-40 mg/kg po; for Tolerability (sLMA) TD50: dose reducing sLMA by 50%
Description: Male CD-1 mice, 6-weeks old, were obtained from Vital River (Beijing, China). The average body weight was 25-35 g at the time the experiments were carried out. The mice were housed in groups of 3-5 under controlled conditions (temperature: 20-26° C.; humidity: 40-70%; air exchange rate: 10-15 cycles/hour; 12:12 light-dark cycle with lights on at 5:00 a.m.). Food and water were available ad libitum. The mice were acclimated to these conditions for 6 days before the start of the studies.
Dosing solutions were prepared on each experiment day. […] All solutions were protected from light. Samples from dosing solutions were stored at 4° C. Both compound and vehicle were dosed at 10 ml/kg.
The sLMA test was carried out over two days. 5 of 10 mice from each treatment group were tested on each day. All animals were marked on the tail with a permanent marker and weighed. Mice were randomly assigned into one of the four treatment groups. Animals were acclimated to the test room at least 30 minutes before the start of the experiment.
Possible side effects, such as overt sedation, were recorded just before the start of the sLMA test.
Each mouse was automatically tracked with overhead cameras using a 1-minute sampling window in an isolated chamber. Spontaneous locomotor activity was then analyzed offline using the Animal Behavior Video Tracking Analysis System (Ji Liang Software Technology Co., Ltd., Shanghai, China).
Locomotor status was defined as >2 mm of movement in every 200 ms (Frame-rate recorded was 20 frames/second. Locomotor status was identified in every 4 frame-to-frame interval. The accumulated shift of tracking spots that exceeded 2 mm in every 4 frame intervals was identified as a locomotor epoch). Traveling distance was calculated automatically from all the locomotion epochs and analyzed.
All mice were anesthetized with CO2. Then, terminal plasma and brain tissue samples were collected from animals in the drug treatment groups. 500 μL whole blood was collected via cardiac puncture and placed in tubes with 10 μL EDTAK2. The tubes were then placed in wet ice until centrifuged at 2000 g for 5 minutes at 4° C. The supernatant plasma was pipetted into Eppendorf tubes.
All statistical analyses were conducted using GraphPad Prism 7.0. Data are presented as mean±s.e.m., and p<0.05 was regarded as statistically significant.
Dose-response and concentration-response curves for plasma and brain were fitted for each end-point using GraphPad Prism. From these fitted curves, TD50 and TC50 values were calculated.

T1 sequence (Q9UQD0 whole entry): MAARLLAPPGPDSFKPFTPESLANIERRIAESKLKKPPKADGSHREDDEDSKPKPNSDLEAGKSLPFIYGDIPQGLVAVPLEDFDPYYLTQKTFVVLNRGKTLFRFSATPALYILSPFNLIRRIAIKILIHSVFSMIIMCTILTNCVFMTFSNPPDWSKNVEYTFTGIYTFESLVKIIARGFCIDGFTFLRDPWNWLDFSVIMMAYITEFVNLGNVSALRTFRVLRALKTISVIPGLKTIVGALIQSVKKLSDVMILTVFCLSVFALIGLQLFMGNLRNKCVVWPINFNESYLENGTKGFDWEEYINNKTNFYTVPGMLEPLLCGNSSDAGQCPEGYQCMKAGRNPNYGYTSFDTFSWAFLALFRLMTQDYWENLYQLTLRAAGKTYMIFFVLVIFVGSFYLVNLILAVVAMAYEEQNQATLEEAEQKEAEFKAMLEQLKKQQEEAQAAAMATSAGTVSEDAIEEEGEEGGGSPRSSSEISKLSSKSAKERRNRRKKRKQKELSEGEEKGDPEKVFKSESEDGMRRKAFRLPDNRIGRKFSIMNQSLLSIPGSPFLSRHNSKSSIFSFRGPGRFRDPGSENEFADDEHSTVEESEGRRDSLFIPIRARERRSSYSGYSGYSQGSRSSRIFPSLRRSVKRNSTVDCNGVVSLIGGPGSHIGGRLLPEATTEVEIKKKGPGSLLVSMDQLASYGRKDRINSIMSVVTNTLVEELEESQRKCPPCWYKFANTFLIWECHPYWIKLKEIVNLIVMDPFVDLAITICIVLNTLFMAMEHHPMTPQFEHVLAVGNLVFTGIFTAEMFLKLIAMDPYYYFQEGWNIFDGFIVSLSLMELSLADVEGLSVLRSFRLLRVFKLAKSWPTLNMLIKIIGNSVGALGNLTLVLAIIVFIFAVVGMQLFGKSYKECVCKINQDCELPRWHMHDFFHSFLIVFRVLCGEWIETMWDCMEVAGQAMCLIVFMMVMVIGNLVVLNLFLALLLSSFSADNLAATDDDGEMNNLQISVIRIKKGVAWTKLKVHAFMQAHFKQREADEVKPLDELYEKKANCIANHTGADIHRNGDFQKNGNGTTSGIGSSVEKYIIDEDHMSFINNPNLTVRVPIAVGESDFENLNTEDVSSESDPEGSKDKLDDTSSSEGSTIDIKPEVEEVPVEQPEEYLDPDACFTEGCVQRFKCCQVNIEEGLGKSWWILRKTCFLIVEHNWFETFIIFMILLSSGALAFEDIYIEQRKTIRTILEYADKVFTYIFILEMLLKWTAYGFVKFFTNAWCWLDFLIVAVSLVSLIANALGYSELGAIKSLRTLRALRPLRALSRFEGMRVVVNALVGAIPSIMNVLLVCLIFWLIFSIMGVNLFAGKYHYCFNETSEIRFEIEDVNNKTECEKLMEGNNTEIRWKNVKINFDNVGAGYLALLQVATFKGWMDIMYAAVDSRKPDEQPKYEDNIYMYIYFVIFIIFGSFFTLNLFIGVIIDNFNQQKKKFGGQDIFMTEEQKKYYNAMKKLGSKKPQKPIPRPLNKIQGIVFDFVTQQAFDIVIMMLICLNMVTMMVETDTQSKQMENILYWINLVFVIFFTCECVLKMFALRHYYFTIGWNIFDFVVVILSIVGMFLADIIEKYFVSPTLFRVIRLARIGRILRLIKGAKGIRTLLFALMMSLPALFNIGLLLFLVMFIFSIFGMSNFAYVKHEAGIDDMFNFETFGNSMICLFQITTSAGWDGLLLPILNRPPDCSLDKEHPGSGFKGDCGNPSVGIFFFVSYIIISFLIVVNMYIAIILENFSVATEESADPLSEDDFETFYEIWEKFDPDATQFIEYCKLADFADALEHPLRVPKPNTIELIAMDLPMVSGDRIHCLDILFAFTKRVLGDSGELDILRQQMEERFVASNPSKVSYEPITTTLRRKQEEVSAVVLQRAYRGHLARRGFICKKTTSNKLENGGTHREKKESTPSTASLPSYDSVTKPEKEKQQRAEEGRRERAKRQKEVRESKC

NC(=O)N1c2ccccc2CC(=O)c2ccccc21 [Oxcarbazepine]
IC50 (human NaV1.6 [1]): 124 µM | Ratio to Pers. INa (Peak INa TB / persistent INa) (human NaV1.6 [2]; hNaV1.6): 8 | IC50 (human NaV1.6 [2]): 1040 µM | Ratio to Pers. INa (Peak INa VDB / persistent INa) (human NaV1.6 [3]): 0.3 | IC50 (human NaV1.6 [3]): 42 µM | patients in whom TEAEs were observed (number) (healthy participants): 3 | patients in whom TEAEs were observed (percent) (healthy participants): 75% | exposure when administered concomitantly with Compound 1 vs alone [4]: appeared to be similar

NC(=O)O[C@@H](Cn1ncnn1)c1ccccc1Cl [Cenobamate]
IC50 (human NaV1.6 [1]): 71.7 µM | Ratio to Pers. INa (Peak INa TB / persistent INa) (human NaV1.6 [2]; hNaV1.6): 24 | IC50 (human NaV1.6 [2]): 1720 µM | Ratio to Peak INa (TB) (UDB-10 Hz) (human NaV1.6 [5]; hNaV1.6): 2.3 | Ratio to Pers. INa (Peak INa UDB-10 Hz / persistent INa) (human NaV1.6 [5]; hNaV1.6): 11 | IC50 (human NaV1.6 [5]; hNaV1.6, 10 Hz): 749 µM | Ratio to Pers. INa (Peak INa VDB / persistent INa) (human NaV1.6 [3]): 0.9 | IC50 (human NaV1.6 [3]): 66.7 µM

NC(=O)N1c2ccccc2C=Cc2ccccc21 [Carbamazepine, reference compound]
IC50 (human NaV1.6 [1]): 77.5 µM | IC50 (human NaV1.6 [2]): 2310 µM | IC50 (human NaV1.6 [5]; hNaV1.6, 10 Hz): 1420 µM | use-dependent block at stimulation frequency of 10 Hz (human NaV1.6 [5]; hNaV1.6, 10 Hz): not observed | use-dependent block at increased frequencies (human NaV1.6 [5]; hNaV1.6, 10 Hz, 30 Hz or 50 Hz): could be observed | IC50 (human NaV1.6 [3]): 44.4 µM | mice protected against MES-induced tonic hindlimb seizures (male CD-1 mice [6]; CBZ 30 mg/kg): all mice | protection (increase in latency) against MES-induced tonic hindlimb seizures, dose-response (male CD-1 mice [6]): dose-dependent protection | ED50 (male CD-1 mice [6]): 5 mg/kg | sLMA at the dose required for complete seizure prevention (male CD-1 mice [7]; CBZ): significant reduction | sLMA distance moved, dose-response (male CD-1 mice [7]): dose-dependent reductions | PI (Brain) (male CD-1 mice [7]; brain TC50 (sLMA) / brain EC50 (MES), free concentrations): 5.9 | Tolerability (sLMA) TD50 (male CD-1 mice [7]): 37.6 mg/kg | PI (Plasma) (male CD-1 mice [7]; plasma TC50 (sLMA) / plasma EC50 (MES), free concentrations): 3.4

NC(=O)N1c2ccccc2CC(O)c2ccccc21 (stereo not shown) [10-Hydroxycarbamezapine]
exposure when administered concomitantly with Compound 1 vs alone [4]: appeared to be similar

COC[C@@H](NC(C)=O)C(=O)NCc1ccccc1 [Lacosamide]
IC50 (human NaV1.6 [1]): 833 µM | Ratio to Pers. INa (Peak INa UDB-10 Hz / persistent INa) (human NaV1.6 [5]; hNaV1.6): 0.8 | IC50 (human NaV1.6 [5]; hNaV1.6, 10 Hz): 682 µM | Ratio to Pers. INa (Peak INa VDB / persistent INa) (human NaV1.6 [3]): 0.3 | IC50 (human NaV1.6 [3]): 269 µM

Nc1nnc(-c2cccc(Cl)c2Cl)c(N)n1 [Lamotrigine, reference compound]
protection (increase in latency) against MES-induced tonic hindlimb seizures, dose-response (male CD-1 mice [6]): dose-dependent protection | mice protected against MES-induced tonic hindlimb seizures (male CD-1 mice [6]; LTG 10 mg/kg, highest dose tested): eight of 12 | ED50 (male CD-1 mice [6]): 3.4 mg/kg | sLMA distance moved, dose-response (male CD-1 mice [7]): dose-dependent reductions | Tolerability (sLMA) TD50 (male CD-1 mice [7]): 26.5 mg/kg

O=C1NC(=O)C(c2ccccc2)(c2ccccc2)N1 [Phenytoin]
IC50 (human NaV1.6 [1]): 59.8 µM | Ratio to Pers. INa (Peak INa UDB-10 Hz / persistent INa) (human NaV1.6 [5]; hNaV1.6): 15 | IC50 (human NaV1.6 [5]; hNaV1.6, 10 Hz): 877 µM | Ratio to Pers. INa (Peak INa VDB / persistent INa) (human NaV1.6 [3]): 0.8 | IC50 (human NaV1.6 [3]): 47.8 µM

CCCC(CCC)C(=O)O [Valproic acid]
inhibition at 1000 µM (human NaV1.6 [1]; hNaV1.6, 1 mM): 2% | inhibition at 1000 µM (human NaV1.6 [2]; hNaV1.6, 1 mM): 11% | inhibition at 1000 µM (human NaV1.6 [5]; hNaV1.6, 1 mM): 8%
